# Source: US8927254B2 (priority 2010, dated 2015)
# Read-outs that look alike come from different tables or passages of the source.
# Assays:
# [1] = system: P. furiosus trp deletion strains; format: cell-based, Pyrococcus furiosus
# P. furiosus = experiment: microbe, parasite or virus in culture; format: cell-based; conditions: Pyrococcus furiosus
SMILES,"sensitivity to 5-FAA ([1]; trpAB deletion strain, tight tryptophan auxotroph)","sensitivity to 5-FAA ([1]; trpE or trpD deletion strains, leaky tryptophan auxotrophs)","sensitivity to 5-FAA ([1]; trpF (PF1707) pop-out deletion strain, leaky auxotroph)",MIC (P. furiosus)
"Nc1ccc(F)cc1C(=O)O [5-FAA, 5-fluoroanthranilic acid]",not sensitive,not sensitive,not sensitive,
"O=C(O)c1[nH]c(=O)[nH]c(=O)c1F [5-FOA, 5-fluoroorotic acid]",,,,8 mM
CCC(C)(C)C(=O)O[C@H]1C[C@@H](C)C=C2C=C[C@H](C)[C@H](CC[C@@H]3C[C@@H](O)CC(=O)O3)[C@H]21 [simvastatin],,,,0.01 to 0.024 mM
